Patent publication US6737383B1, “Herbicidal oxadiazolidines” (priority 1999, dated 2004)

Assays:
[1] = system: bedstraw; test: Test B pre/postemergence bedstraw; assay type: in vivo, Galium aparine; conditions: Preemergence
Outline: (§1)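 Test chemicals in a non-phytotoxic solvent mixture with surfactant were sprayed preemergence onto planted seeds and postemergence onto plants 2 to 18 cm tall (1- to 4-leaf stage). After twelve to sixteen days in a greenhouse, injury was visually rated against untreated controls from 0 (no effect) to 10 (complete control).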

[2] = system: blackgrass; test: Test B pre/postemergence blackgrass; assay type: in vivo, Alopecurus myosuroides; conditions: Preemergence
Outline: as §1

[3] = system: surinam grass; test: Test B pre/postemergence surinam grass; assay type: in vivo, Brachiaria decumbens; conditions: Preemergence
Outline: as §1

[4] = system: cocklebur; test: Test B pre/postemergence cocklebur; assay type: in vivo, Xanthium strumarium; conditions: Preemergence
Outline: as §1

[5] = system: corn; test: Test B pre/postemergence corn; assay type: in vivo, Zea mays; conditions: Preemergence
Outline: as §1

[6] = system: crabgrass; test: Test B pre/postemergence crabgrass; assay type: in vivo, Digitaria sanguinalis; conditions: Preemergence
Outline: as §1

[7] = system: giant foxtail; test: Test B pre/postemergence giant foxtail; assay type: in vivo, Setaria faberii; conditions: Preemergence, scale of 0 to 10 where 0 is no effect and 10 is complete control
Outline: as §1

[8] = system: morningglory; test: Test B pre/postemergence morningglory; assay type: in vivo, Ipomoea hederacea; conditions: Preemergence, scale of 0 to 10 where 0 is no effect and 10 is complete control
Outline: as §1

[9] = system: pigweed; test: Test B pre/postemergence pigweed; assay type: in vivo, Amaranthus retroflexus; conditions: Preemergence, scale of 0 to 10 where 0 is no effect and 10 is complete control
Outline: as §1

[10] = system: rape; test: Test B pre/postemergence rape; assay type: in vivo, Brassica napus; conditions: Preemergence, scale of 0 to 10 where 0 is no effect and 10 is complete control
Outline: as §1

[11] = system: soybean; test: Test B pre/postemergence soybean; assay type: in vivo, Glycine max; conditions: Preemergence, scale of 0 to 10 where 0 is no effect and 10 is complete control
Outline: as §1

[12] = system: sugar beet; test: Test B pre/postemergence sugar beet; assay type: in vivo, Beta vulgaris; conditions: Preemergence, scale of 0 to 10 where 0 is no effect and 10 is complete control
Outline: as §1

[13] = system: velvetleaf; test: Test B pre/postemergence velvetleaf; assay type: in vivo, Abutilon theophrasti; conditions: Preemergence, scale of 0 to 10 where 0 is no effect and 10 is complete control
Outline: as §1

[14] = system: wheat; test: Test B pre/postemergence wheat; assay type: in vivo, Triticum aestivum; conditions: Preemergence, scale of 0 to 10 where 0 is no effect and 10 is complete control
Outline: as §1

[15] = system: wild oat; test: Test B pre/postemergence wild oat; assay type: in vivo, Avena fatua; conditions: Preemergence, scale of 0 to 10 where 0 is no effect and 10 is complete control
Outline: as §1

[16] = system: purple nutsedge; test: Test B pre/postemergence purple nutsedge; assay type: in vivo, Cyperus rotundus; conditions: Preemergence, scale of 0 to 10 where 0 is no effect and 10 is complete control
Outline: as §1

[17] = system: rice; test: Test B flood test rice; assay type: in vivo, Oryza sativa
Outline: (§2)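 Flood test on plants grown to the 2-leaf stage; treated plants kept in greenhouse twelve to sixteen days, then visually rated against controls on a 0 (no effect) to 10 (complete control) scale.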

[18] = system: smallflower flatsedge; test: Test B flood test smallflower flatsedge; assay type: in vivo, Cyperus difformis
Outline: as §2

[19] = system: duck salad; test: Test B flood test duck salad; assay type: in vivo, Heteranthera limosa
Outline: as §2

[20] = system: bamyardgrass; test: Test B flood test barnyardgrass; assay type: in vivo, Echinochloa crus-galli
Outline: as §2

[21] = Rate 62 g/ha, scale of 0 to 10 where 0 is no effect and 10 is complete control
[22] = Rate 250 g/ha, scale 0 to 10 (0 no effect, 10 complete control)
[23] = Rate 500 g/ha, scale of 0 to 10 where 0 is no effect and 10 is complete control
[24] = Rate 125 g/ha, scale of 0 to 10 where 0 is no effect and 10 is complete control
[25] = Rate 62 g/ha, flood test species, Pre-emergence, visual evaluation after twelve to sixteen days
[26] = Rate 125 g/ha, under heading Pre-emergence, flood test species, visual evaluation after twelve to sixteen days
[27] = Rate 250 g/ha, Pre-emergence (flood test species), scale 0 to 10, 0 is no effect, 10 is complete control
[28] = Rate 500 g/ha, Pre-emergence section of Table B, 0 to 10 scale (0 no effect, 10 complete control)

CC(C)N(C(=O)n1oc(=O)n(C(C)C2CC2)c1=O)c1ccccc1 (stereo not drawn) [Compound 699]
10: Plant response rating, Blackgrass [2, 24] | Plant response rating, Blackgrass [2, 22] | Plant response rating, Blackgrass [2, 23] | Plant response rating, B. signalgrass [3, 23] | Crabgrass plant response rating [6, 21] | Plant response rating, Crabgrass [6, 24] | Plant response rating, Crabgrass [6, 22] | Giant foxtail plant response rating ([7]; Rate 62 g/ha) | Plant response rating, Giant foxtail ([7]; Rate 125 g/ha) | Plant response rating, Wild oats ([15]; Rate 125 g/ha)
6: Plant response rating, Corn [5, 24] | Plant response rating, S. Flatsedge (0 to 10 scale, 0 is no effect, 10 is complete control) [18, 25]
8: Blackgrass plant response rating [2, 21] | B. signalgrass plant response rating [3, 21] | Plant response rating, Corn [5, 22] | S. Flatsedge plant response rating [18, 28] | Ducksalad plant response rating (0 to 10 scale, 0 is no effect, 10 is complete control) [19, 26] | Barnyardgrass plant response rating [20, 27] | Barnyardgrass plant response rating [20, 28]
3: Corn plant response rating [5, 21] | Redroot pigweed plant response rating ([9]; Rate 62 g/ha) | Plant response rating, Redroot pigweed ([9]; Rate 125 g/ha) | Sugarbeets plant response rating ([12]; Rate 62 g/ha) | Plant response rating, Wheat ([14]; Rate 125 g/ha) | Plant response rating, Ducksalad (0 to 10 scale, 0 is no effect, 10 is complete control) [19, 25]
9: Plant response rating, B. signalgrass [3, 24] | Plant response rating, B. signalgrass [3, 22] | Wild oats plant response rating ([15]; Rate 62 g/ha) | S. Flatsedge plant response rating [18, 27] | Ducksalad plant response rating [19, 27] | Ducksalad plant response rating [19, 28]
2: Morningglory plant response rating ([8]; Rate 62 g/ha) | Plant response rating, Rape ([10]; Rate 125 g/ha) | Plant response rating, Soybean ([11]; Rate 125 g/ha) | Plant response rating, Velvetleaf ([13]; Rate 125 g/ha)
7: S. Flatsedge plant response rating (0 to 10 scale, 0 is no effect, 10 is complete control) [18, 26]
4: Plant response rating, Morningglory ([8]; Rate 125 g/ha) | Plant response rating, Sugarbeets ([12]; Rate 125 g/ha) | Rice plant response rating [17, 28] | Plant response rating, Barnyardgrass (0 to 10 scale, 0 is no effect, 10 is complete control) [20, 25] | Barnyardgrass plant response rating (0 to 10 scale, 0 is no effect, 10 is complete control) [20, 26]
0: Bedstraw plant response rating [1, 21] | Plant response rating, Bedstraw [1, 22] | Plant response rating, Bedstraw [1, 23] | Cocklebur plant response rating [4, 21] | Plant response rating, Cocklebur [4, 24] | Plant response rating, Cocklebur [4, 22] | Plant response rating, Cocklebur [4, 23] | Rape plant response rating ([10]; Rate 62 g/ha) | Soybean plant response rating ([11]; Rate 62 g/ha) | Velvetleaf plant response rating ([13]; Rate 62 g/ha) | Wheat plant response rating ([14]; Rate 62 g/ha) | Nutsedge plant response rating ([16]; Rate 62 g/ha) | Plant response rating, Nutsedge ([16]; Rate 125 g/ha) | Plant response rating, Rice (0 to 10 scale, 0 is no effect, 10 is complete control) [17, 25] | Rice plant response rating (0 to 10 scale, 0 is no effect, 10 is complete control) [17, 26]
5: Rice plant response rating [17, 27]
